{"source": "patent US9861601B2", "about": "(The Board of Trustees of the Leland Stanford Junior …, priority 2012, dated 2018)", "key": {"[1]": {"test": "Pharmacokinetic analysis of oral ubenimex formulation", "assay_type": "in vivo, rat", "settings": "PEG-400/HPCD formulation", "protocol": "(§1) In the model, PH was first initiated by a single injection of a VEGFR2 inhibitor, SU5416, and monitored by weekly echocardiography. Survival of the animals was recorded on daily basis. […] After 5 weeks (day 35), animals were sacrificed after right heart catheterization. […] Oral availability of ubenimex was determined by pharmacokinetic analysis.\n(not a statin-derivative), is a well-tolerated LTA4H inhibitor that blocks LTB4 formation. […] Ubenimex efficacy in reversing PAH was dose-dependent. The sustained release oral formulation was absorbed rapidly within 2-3 hours and was eliminated from the body with a T1/2 of 12 hours.\nA 20% (w/v) aqueous solution of hydroxypropyl-β-cyclodextrin (HPCD) was added to the mixture to bring the volume to 50 ml."}, "[2]": {"system": "model of rodent PH utilizing SU and exposure to chronic hypoxia", "test": "Rodent PH model utilizing SU and chronic hypoxia (animals not prone to immune dysregulation)", "assay_type": "in vivo", "settings": "therapy initiated late in disease development"}, "athymic rat model of PAH": {"system": "athymic rat model of PAH", "test": "SU5416 athymic nude rat model of PAH (PH)", "assay_type": "in vivo", "settings": "for reversal of established PH / PH-related death: treatment started 21 days (3 wk) after SU5416, doses as in b355, assessed at wk 5", "protocol": "as §1\nThe athymic nude rat model is an accepted model of severe PAH associated with immune dysregulation. Athymic nude rats (rnu/rnu) (Charles River Laboratories) were used for these studies. Six to eight week old animals were injected subcutaneously (s.c.) with a single dose of either SU5416 (SU) (10 mg/kg) dissolved in DMSO or DMSO (vehicle) alone. All animals were maintained in normoxic conditions. PH progression was monitored by weekly echocardiography (ECHO). Survival of rats was monitored out to wk 5 when they underwent a terminal right heart catheterization. PH was confirmed by ECHO. Hemodynamic measurements included right ventricular systolic pressure (RVSP) determined by right heart catheterization and right ventricular hypertrophy (RVH) determined by the weight ratio of RV/(LV+S) (right ventricle/(left ventricle+septum)).\nAll animals were sacrificed 5 wk after SU administration for hemodynamic measurements. […] Serial improvement was observed from the time of treatment initiation. Interval improvement was manifested by decreasing RV wall thickness and increasing pulmonary artery acceleration times (PAAT) after initiation of treatment. […] Here again, the compound of Formula III was notable: treatment with that compound yielded an RVH ratio of 0.29. RVH for healthy rats is generally about 0.25."}, "[3]": {"settings": "patients with PAH; cited from earlier work"}, "[4]": {"system": "Rat pulmonary arterial endothelial cells (PAECs)", "test": "PAEC apoptosis assay (Annexin V flow cytometry, with or without macrophage co-culture)", "assay_type": "cell-based", "protocol": "The transwell assay involved co-culturing IMØs from several sources with PAECs. IMØs, from (A) DMSO and (B) SU rat lungs, were isolated and co-cultured with PAECs. After 24 hr, PAEC apoptosis was analyzed by flow cytometry for Annexin V expression. To isolate the specific impact of LTB4 generated by 5-LO activation further, IMØs were extracted from healthy rats and transfected with S271E to produce a phosphorylation mimic mutant or with S271A to produce a dephosphorylation mimic mutant. Vector and WT 5-LO DNA-transfected IMØs were used as controls. Flow cytometry was performed on PAECs co-cultured with IMØs extracted from healthy rats and transfected with (C) vector as control, (D) WT 5-LO, (E) S271A, (F) S271E (G) S271E mutant treated with n-acetyl cysteine (NAC) (200 nM) or (H) S271A mutant treated with LTB4 (100 nM). PAECs were treated with (I) exogenous LTB4 (200 nM) or (J) LTB4 (200 nM) with a BLT1 inhibitor U75302 […] (n=3 experiments per group). Representative flow cytometry plots are shown, n=3 experiments per group.\nThe results reported in this example were obtained using the following PAEC apoptosis assay. Rat pulmonary arterial endothelial cells (PAECs) were co-cultured with macrophages (+/− transfection) for 24 hr. They were then washed once with PBS and once with binding buffer from the Annexin V Apoptosis Detection Kit (88-8007; eBioscience). Cells were then suspended in binding buffer at 1-5×10^6/ml. 5 μl of APC conjugated Annexin V was added to 100 μl of cells, which were then incubated at room temperature for 15 min. Five μl of propidium iodide staining solution were added 5 min. prior to flow cytometry analysis on an LSRFortessa cell analyzer (BD Biosciences)."}, "[5]": {"system": "human primary pulmonary arterial smooth muscle cell (hPASMC)", "test": "hPASMC proliferation (MTT) and hypertrophy (protein/DNA ratio) assay", "assay_type": "cell-based", "settings": "24 hr", "protocol": "An in vitro toxicology assay kit (#M-5655, #8910, Sigma) was used to measure the number of viable hPASMC after LTB4 treatment. Briefly, hPASMCs were plated in a 96 well plate one day before treatment. Cells were treated with 200 nM or 400 nM LTB4 for 24 hr. On the day of assay, growing medium was first removed from the cells, then 20 μL of 12 mM MTT ((3-(4,5-Dimethylthiazol-2-yl)-2,5-diphenyltetrazolium bromide, a yellow tetrazole)) stock solution were then added to each well. After incubation at 37 degrees C. for 4 hr, 200 μL MTT dissolution solution (10% Triton X-100 plus 0.1 N HCl in anhydrous isopropanol) were added to each well. Relative optical density, which was used as a parameter for proliferation, was calculated by subtracting the absorbance at 690 nm from that at 570 nm. Cellular hypertrophy was determined by protein/DNA ratio. hPASMCs were seeded on 6 well plates. Cells were treated with 200 nM or 400 nM LTB4 for 24 hr. hPASMCs were then collected and divided into to two. For one part of each sample, a BCA protein assay kit (#23227, Thermo Scientific) was used to determined the total protein amount. DNA was purified from the other part of the sample using a Miniprep kit (QIAGEN). DNA concentration was then measured by nanodrop."}}, "note": "Where two headings read alike, the source gives them in different places.", "data": [{"smiles": "CC(C)C[C@H](NC(=O)[C@@H](O)[C@H](N)Cc1ccccc1)C(=O)O", "note": "[ubenimex, (2S)-2-[[(2S,3R)-3-amino-2-hydroxy-4-phenylbutanoyl]amino]-4-methylpentanoic acid]", "values": [{"measurement": "time of absorption", "setting": "[1]", "value": "≤ 2", "unit": "h"}, {"measurement": "half-life", "setting": "[1]; athymic, rat, in vivo", "value": 12, "unit": "h"}, {"measurement": "response of PH animals to therapy", "setting": "[2]", "value": "did not respond"}, {"measurement": "accumulation of 5-LO expressing periarteriolar macrophages and B cells in lungs", "setting": "athymic rat model of PAH; SU-treated athymic rats", "value": "significantly reduced"}, {"measurement": "in vivo PAEC apoptosis", "setting": "athymic rat model of PAH; SU-treated athymic rats", "value": "reduced"}, {"measurement": "improvement in RVSP, RVH and survival", "setting": "athymic rat model of PAH; oral once a day 0.25, 0.5, 0.75, 1 mg/kg, from 3 weeks after SU5416 for 2 weeks", "value": "dose dependent improvement"}, {"measurement": "prevention of PH development and survival", "setting": "athymic rat model of PAH; systemic therapy initiated when SU was first administered", "value": "very effectively prevented PH development and prolonged survival"}, {"measurement": "reversal of established PH / PH-related death", "setting": "athymic rat model of PAH", "value": "reverses established PH"}, {"measurement": "reversal of established PH / PH-related death", "setting": "athymic rat model of PAH; listed as Ubenimex", "value": "dose-dependent"}]}, {"smiles": "CN1CC(=O)N2[C@H](c3ccc4c(c3)OCO4)c3[nH]c4ccccc4c3C[C@@H]2C1=O", "note": "[Tadalafil]", "values": [{"measurement": "half-life", "setting": "[3]", "value": 35, "unit": "h"}]}, {"smiles": "CCCCC/C=C\\C[C@@H](O)/C=C/C=C/C=C\\[C@@H](O)CCCC(=O)O", "note": "[LTB4, leukotriene B4]", "values": [{"measurement": "PAEC apoptosis induced by exogenous leukotriene (no macrophages)", "setting": "[4]; 24 hrs", "value": "significant apoptosis"}, {"measurement": "PAEC apoptosis in co-culture with S271A transfected macrophages", "setting": "[4]; exogenous LTB4 (100 nM)", "value": "caused apoptosis"}, {"measurement": "cellular hypertrophy (protein/DNA ratio)", "setting": "[5]; 200 nM or 400 nM", "value": "increased in a similar pattern"}, {"measurement": "number of PASMC versus negative control group", "setting": "[5]; 200 nM", "value": 1.8, "unit": "fold"}, {"measurement": "number of PASMC versus negative control group", "setting": "[5]; 400 nM", "value": "two fold more"}]}]}
